Results: ChEMBL document CHEMBL4507298 (2021)

Assays:
[1] = target: T1, GABA-A receptor; anion channel (Homo sapiens) (UniProt P14867+P47870+P18507+P28472+P48169+Q99928+Q9UN88+P34903+O00591+O14764+Q8N1C3+P18505+P78334+P47869+P31644+Q16445); test: GABAA BZD (central) CEREP ligand profiling; format: protein-complex assay; conditions: Compound concentration 10.0 uM
D(1A) dopamine receptor = D(1A) dopamine receptor (Homo sapiens, UniProt P21728); test: D1 (h) CEREP ligand profiling; conditions: Compound concentration 10.0 uM
[2] = target: Casein kinase I isoform epsilon (Homo sapiens) (UniProt P49674); conditions: Compound concentration 1000.0 nM
CYP2D6 = CYP2D6 (Homo sapiens, UniProt P10635); test: CYP2D6 inhibition CEREP ligand profiling; conditions: compound concentration 10 uM
[3] = target: Serine/threonine-protein kinase PAK 4 (Homo sapiens) (UniProt O96013); conditions: Compound concentration 1000.0 nM
[4] = target: Phosphodiesterase 6 (Homo sapiens) (UniProt Q13956+P18545+P35913+O43924+P16499+P51160); test: PDE6 CEREP ligand profiling; format: protein assay; conditions: Compound concentration 10.0 uM
[5] = target: MAP/microtubule affinity-regulating kinase 3 (Homo sapiens) (UniProt P27448); conditions: Compound concentration 1000.0 nM
[6] = target: Tyrosine 3-monooxygenase (Homo sapiens) (UniProt P07101); test: TH CEREP ligand profiling; conditions: Compound concentration 10.0 uM
[7] = target: Mu-type opioid receptor (Homo sapiens) (UniProt P35372); conditions: Compound concentration 10.0 uM
[8] = target: Gastrin/cholecystokinin type B receptor (Homo sapiens) (UniProt P32239); test: CCKB (h) (CCK2) CEREP ligand profiling; conditions: Compound concentration 10.0 uM
[9] = target: Voltage-dependent N-type calcium channel subunit alpha-1B (Homo sapiens) (UniProt Q00975); test: Ca2+ channel (N) CEREP ligand profiling; conditions: Compound concentration 10.0 uM
[10] = target: STE20-like serine/threonine-protein kinase (Homo sapiens) (UniProt Q9H2G2); conditions: Compound concentration 1000.0 nM
[11] = target: Calcium/calmodulin-dependent protein kinase type II subunit alpha (Homo sapiens) (UniProt Q9UQM7); test: CaMK2alpha (h) CEREP ligand profiling; conditions: Compound concentration 10.0 uM
[12] = target: LIM domain kinase 2 (Homo sapiens) (UniProt P53671); conditions: Compound concentration 1000.0 nM
[13] = target: Beta-adrenergic receptor kinase 1 (Homo sapiens) (UniProt P25098); conditions: Compound concentration 1000.0 nM
[14] = target: Serine/threonine-protein kinase PknB (Mycobacterium tuberculosis) (UniProt P9WI81); conditions: Compound concentration 1000.0 nM
[15] = target: Endothelin-1 receptor (Homo sapiens) (UniProt P25101); test: ETA (h) CEREP ligand profiling; conditions: Compound concentration 10.0 uM
[16] = target: MAP kinase-interacting serine/threonine-protein kinase 1 (Homo sapiens) (UniProt Q9BUB5); conditions: Compound concentration 1000.0 nM
[17] = target: Phosphatidylinositol 5-phosphate 4-kinase type-2 beta (Homo sapiens) (UniProt P78356); conditions: Compound concentration 1000.0 nM
[18] = system: Phosphatidylinositol 4,5-bisphosphate 3-kinase catalytic subunit alpha isoform (Homo sapiens), P42336 [I800L]; conditions: Compound concentration 1000.0 nM
[19] = target: Leukotriene B4 receptor 1 (Homo sapiens, UniProt Q15722); test: LTB4 (h) (BLT1) CEREP ligand profiling
[20] = system: Receptor-type tyrosine-protein kinase FLT3 (Homo sapiens), P36888 [D835H]; conditions: Compound concentration 1000.0 nM
[21] = target: T1, GABA-A receptor; anion channel (Homo sapiens); test: GABAA CEREP ligand profiling; format: protein-complex assay; conditions: Compound concentration 10.0 uM
[22] = target: Serine/threonine-protein kinase SIK3 (Homo sapiens) (UniProt Q9Y2K2); conditions: Compound concentration 1000.0 nM
[23] = system: ALK tyrosine kinase receptor (Homo sapiens), Q9UM73 [C1156Y]; conditions: Compound concentration 1000.0 nM
[24] = target: Dual specificity protein kinase CLK1 (Homo sapiens) (UniProt P49759); conditions: Compound concentration 1000.0 nM
[25] = target: Vascular endothelial growth factor receptor 3 (Homo sapiens) (UniProt P35916); conditions: Compound concentration 1000.0 nM
[26] = target: T2, D(4) dopamine receptor (Homo sapiens) (UniProt P21917); test: D4.4 (h) CEREP ligand profiling; conditions: Compound concentration 10.0 uM
T2 sequence (whole entry): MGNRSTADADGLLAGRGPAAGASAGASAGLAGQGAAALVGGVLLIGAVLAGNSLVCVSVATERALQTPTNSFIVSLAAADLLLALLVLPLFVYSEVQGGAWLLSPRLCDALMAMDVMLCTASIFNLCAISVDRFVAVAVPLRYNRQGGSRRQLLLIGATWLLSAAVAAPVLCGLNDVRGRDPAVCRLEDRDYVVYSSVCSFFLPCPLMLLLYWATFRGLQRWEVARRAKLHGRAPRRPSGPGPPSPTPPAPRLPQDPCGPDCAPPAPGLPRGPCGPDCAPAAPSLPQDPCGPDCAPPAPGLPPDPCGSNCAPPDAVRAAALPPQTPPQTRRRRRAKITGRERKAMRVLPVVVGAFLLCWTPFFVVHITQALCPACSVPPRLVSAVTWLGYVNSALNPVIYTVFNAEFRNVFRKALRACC

[27] = target: Serine/threonine-protein kinase ICK (Homo sapiens) (UniProt Q9UPZ9); conditions: Compound concentration 1000.0 nM
[28] = target: Serine/threonine-protein kinase 17A (Homo sapiens) (UniProt Q9UEE5); conditions: Compound concentration 1000.0 nM
[29] = target: NT-3 growth factor receptor (Homo sapiens) (UniProt Q16288); conditions: Compound concentration 1000.0 nM
[30] = target: Serine/threonine-protein kinase WNK2 (Homo sapiens) (UniProt Q9Y3S1); conditions: Compound concentration 1000.0 nM
[31] = target: cGMP-dependent protein kinase 2 (Homo sapiens) (UniProt Q13237); conditions: Compound concentration 1000.0 nM
[32] = target: Dual specificity protein kinase CLK3 (Homo sapiens) (UniProt P49761); conditions: Compound concentration 1000.0 nM
[33] = target: Mitogen-activated protein kinase kinase kinase 15 (Homo sapiens) (UniProt Q6ZN16); conditions: Compound concentration 1000.0 nM
[34] = target: Calcium/calmodulin-dependent protein kinase type IV (Homo sapiens) (UniProt Q16566); conditions: Compound concentration 1000.0 nM
Histamine H4 receptor = Histamine H4 receptor (Homo sapiens, UniProt Q9H3N8); test: GPCRScan assay: inhibition of H4; design: radioligand conc. used [nm] 1.0 – 5.0, parental cells HEK T
[35] = target: Histamine H1 receptor (Homo sapiens) (UniProt P35367); conditions: Compound concentration 10.0 uM

Sequence of Leukotriene B4 receptor 1 (Q15722 whole entry): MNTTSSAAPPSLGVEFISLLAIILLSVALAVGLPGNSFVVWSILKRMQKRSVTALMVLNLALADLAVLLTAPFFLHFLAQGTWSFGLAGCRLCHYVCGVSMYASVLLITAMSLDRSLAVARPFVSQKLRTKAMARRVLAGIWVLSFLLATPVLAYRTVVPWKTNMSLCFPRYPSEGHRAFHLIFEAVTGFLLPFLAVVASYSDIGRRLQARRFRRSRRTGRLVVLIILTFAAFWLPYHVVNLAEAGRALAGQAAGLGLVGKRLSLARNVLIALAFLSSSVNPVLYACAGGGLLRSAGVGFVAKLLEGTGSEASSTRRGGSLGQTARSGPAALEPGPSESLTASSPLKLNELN
Sequence of Dual specificity protein kinase CLK3 (Homo sapiens) (P49761 whole entry, looked up): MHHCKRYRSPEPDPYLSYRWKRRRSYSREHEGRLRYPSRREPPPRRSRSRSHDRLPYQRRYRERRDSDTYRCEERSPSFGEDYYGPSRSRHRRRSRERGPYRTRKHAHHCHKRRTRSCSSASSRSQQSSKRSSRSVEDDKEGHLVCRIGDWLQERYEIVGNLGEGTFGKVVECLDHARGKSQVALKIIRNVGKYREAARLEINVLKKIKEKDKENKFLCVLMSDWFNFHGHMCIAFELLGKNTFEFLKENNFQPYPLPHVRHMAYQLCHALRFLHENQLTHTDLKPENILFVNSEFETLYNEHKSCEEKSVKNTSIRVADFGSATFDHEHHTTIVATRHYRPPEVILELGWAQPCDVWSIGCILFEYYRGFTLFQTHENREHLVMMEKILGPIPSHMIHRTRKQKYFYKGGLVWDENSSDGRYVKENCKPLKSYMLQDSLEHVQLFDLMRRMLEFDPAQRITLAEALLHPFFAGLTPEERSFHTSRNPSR
Sequence of Serine/threonine-protein kinase PAK 4 (Homo sapiens) (O96013 whole entry, looked up): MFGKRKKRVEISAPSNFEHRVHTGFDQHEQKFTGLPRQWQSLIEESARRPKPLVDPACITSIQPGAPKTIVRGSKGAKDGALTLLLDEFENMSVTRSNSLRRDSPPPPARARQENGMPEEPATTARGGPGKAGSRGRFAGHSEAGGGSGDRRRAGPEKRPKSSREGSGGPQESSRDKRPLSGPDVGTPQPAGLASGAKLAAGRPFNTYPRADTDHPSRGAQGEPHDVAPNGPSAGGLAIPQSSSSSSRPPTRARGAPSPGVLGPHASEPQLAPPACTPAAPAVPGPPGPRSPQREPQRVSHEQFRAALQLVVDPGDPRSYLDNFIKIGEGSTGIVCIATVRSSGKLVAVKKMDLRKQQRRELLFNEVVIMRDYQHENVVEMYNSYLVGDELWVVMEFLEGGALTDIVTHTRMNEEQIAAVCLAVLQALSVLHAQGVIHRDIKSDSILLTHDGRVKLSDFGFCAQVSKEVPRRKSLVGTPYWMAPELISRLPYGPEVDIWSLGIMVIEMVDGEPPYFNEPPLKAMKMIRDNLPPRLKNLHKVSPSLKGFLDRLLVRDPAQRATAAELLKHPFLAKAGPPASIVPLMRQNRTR
Sequence of Dual specificity protein kinase CLK1 (Homo sapiens) (P49759 whole entry, looked up): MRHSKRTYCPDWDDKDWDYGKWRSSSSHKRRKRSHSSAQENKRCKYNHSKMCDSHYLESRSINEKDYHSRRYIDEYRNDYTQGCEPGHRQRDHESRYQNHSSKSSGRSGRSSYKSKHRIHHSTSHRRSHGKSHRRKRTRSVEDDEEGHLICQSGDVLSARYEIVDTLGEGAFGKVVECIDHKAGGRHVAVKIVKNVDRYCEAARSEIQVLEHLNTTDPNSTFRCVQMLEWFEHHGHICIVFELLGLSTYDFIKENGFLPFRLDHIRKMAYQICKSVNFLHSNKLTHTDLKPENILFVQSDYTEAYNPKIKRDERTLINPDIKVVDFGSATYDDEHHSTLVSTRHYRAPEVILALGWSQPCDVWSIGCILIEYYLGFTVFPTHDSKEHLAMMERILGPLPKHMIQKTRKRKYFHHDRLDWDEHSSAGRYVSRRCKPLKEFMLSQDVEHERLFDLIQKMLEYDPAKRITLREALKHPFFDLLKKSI
Sequence of Phosphatidylinositol 4,5-bisphosphate 3-kinase catalytic subunit alpha isoform (Homo sapiens), P42336 [I800L] (P42336 whole entry I800L, canonical isoform): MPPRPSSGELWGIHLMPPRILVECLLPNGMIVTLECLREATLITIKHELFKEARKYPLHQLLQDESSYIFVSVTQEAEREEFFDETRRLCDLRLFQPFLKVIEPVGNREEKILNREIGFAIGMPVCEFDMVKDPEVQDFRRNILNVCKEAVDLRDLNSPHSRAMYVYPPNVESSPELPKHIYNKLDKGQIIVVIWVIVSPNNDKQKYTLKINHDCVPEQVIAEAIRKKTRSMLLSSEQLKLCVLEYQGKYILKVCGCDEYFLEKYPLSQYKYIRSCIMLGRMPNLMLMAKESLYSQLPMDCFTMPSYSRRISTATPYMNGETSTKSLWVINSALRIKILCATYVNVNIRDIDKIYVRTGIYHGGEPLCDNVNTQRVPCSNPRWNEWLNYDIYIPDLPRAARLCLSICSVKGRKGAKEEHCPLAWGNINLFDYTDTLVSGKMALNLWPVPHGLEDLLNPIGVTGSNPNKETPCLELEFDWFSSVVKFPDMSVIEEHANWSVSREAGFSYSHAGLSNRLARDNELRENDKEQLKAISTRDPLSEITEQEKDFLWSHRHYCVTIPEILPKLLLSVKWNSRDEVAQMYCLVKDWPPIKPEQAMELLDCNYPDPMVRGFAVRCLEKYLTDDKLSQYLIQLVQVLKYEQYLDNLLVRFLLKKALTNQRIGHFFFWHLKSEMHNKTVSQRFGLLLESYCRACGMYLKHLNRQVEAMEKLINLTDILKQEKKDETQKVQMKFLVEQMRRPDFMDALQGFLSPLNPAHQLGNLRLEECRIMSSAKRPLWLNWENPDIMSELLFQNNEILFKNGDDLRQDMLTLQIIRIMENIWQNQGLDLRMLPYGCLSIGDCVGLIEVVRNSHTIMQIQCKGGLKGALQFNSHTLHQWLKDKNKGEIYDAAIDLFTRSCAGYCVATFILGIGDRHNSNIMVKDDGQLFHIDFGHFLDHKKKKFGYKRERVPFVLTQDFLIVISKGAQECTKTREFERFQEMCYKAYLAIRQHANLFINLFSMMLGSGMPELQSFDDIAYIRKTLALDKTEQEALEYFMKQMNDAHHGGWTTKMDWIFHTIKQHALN
Sequence of Phosphatidylinositol 5-phosphate 4-kinase type-2 beta (Homo sapiens) (P78356 whole entry, canonical isoform): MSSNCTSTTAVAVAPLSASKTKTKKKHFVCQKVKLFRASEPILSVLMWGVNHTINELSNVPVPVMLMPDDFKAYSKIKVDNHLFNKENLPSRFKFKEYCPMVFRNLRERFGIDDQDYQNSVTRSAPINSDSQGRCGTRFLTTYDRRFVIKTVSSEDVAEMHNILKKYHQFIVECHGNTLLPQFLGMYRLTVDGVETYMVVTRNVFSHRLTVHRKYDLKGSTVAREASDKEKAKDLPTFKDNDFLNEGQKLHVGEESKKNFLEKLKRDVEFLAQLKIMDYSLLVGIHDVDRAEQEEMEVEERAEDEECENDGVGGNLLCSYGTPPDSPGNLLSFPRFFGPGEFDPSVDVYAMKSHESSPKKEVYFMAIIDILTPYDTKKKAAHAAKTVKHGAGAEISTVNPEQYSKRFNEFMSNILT
Sequence of Serine/threonine-protein kinase ICK (Homo sapiens) (Q9UPZ9 whole entry): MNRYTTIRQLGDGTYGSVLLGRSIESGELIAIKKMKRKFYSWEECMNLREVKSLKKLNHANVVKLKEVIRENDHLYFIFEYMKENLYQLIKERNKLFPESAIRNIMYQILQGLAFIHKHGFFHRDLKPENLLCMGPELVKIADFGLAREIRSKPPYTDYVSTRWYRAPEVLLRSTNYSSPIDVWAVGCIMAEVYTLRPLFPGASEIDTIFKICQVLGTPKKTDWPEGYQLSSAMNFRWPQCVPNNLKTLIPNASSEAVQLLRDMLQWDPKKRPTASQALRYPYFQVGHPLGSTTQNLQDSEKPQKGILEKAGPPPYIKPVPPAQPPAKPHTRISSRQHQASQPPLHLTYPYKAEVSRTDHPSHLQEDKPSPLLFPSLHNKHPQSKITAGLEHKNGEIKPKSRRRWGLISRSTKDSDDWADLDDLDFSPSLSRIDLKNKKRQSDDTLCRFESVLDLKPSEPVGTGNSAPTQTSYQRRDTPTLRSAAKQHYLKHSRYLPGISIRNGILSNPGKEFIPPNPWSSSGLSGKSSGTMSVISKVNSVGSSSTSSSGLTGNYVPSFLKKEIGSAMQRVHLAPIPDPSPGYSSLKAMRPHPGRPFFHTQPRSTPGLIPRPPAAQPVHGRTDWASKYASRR
Sequence of MAP/microtubule affinity-regulating kinase 3 (Homo sapiens) (P27448 whole entry, looked up): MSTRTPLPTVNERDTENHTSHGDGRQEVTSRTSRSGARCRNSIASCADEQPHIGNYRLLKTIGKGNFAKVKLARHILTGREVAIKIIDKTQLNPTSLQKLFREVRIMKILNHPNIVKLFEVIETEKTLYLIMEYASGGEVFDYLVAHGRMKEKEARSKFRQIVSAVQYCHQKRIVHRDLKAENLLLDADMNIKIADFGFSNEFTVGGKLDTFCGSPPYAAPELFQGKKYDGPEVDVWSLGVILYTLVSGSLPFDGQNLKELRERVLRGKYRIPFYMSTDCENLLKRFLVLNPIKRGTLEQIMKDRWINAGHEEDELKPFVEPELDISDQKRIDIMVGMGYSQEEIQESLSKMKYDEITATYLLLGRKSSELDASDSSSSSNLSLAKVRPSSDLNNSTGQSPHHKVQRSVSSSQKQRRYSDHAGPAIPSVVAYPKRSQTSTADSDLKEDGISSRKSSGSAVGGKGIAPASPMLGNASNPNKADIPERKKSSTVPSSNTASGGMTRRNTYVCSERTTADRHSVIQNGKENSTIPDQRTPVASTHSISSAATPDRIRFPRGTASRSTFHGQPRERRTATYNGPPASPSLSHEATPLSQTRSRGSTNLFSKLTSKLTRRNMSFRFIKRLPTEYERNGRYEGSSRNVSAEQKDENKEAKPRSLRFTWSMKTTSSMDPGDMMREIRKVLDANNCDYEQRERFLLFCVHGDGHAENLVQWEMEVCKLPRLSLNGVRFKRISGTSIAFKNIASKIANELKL

COc1ccc2cc(OCC3(C(=O)O)CN(C(=O)c4ccc(F)cc4)C3)ccc2c1 [PF-04418948]
inhibition [1]: 10%
inhibition (D(1A) dopamine receptor): 5%
residual activity [2]: 94%
inhibition at 10 µM (CYP2D6): 18% (not active)
residual activity [3]: 94%
inhibition [4]: 3%
residual activity [5]: 94%
inhibition [6]: -10%
inhibition [7]: 1.07%
inhibition [8]: -8%
inhibition [9]: -7%
residual activity [10]: 85%
inhibition [11]: 5%
residual activity [12]: 90%
residual activity [13]: 72%
residual activity [14]: 88%
inhibition [15]: 3%
residual activity [16]: 93%
residual activity [17]: 74%
residual activity [18]: 90%
IC50 [19]: 9.7 µM
Ki [19]: 4.8 µM
inhibition ([19]; Compound concentration 10.0 uM): 51%
residual activity [20]: 71%
inhibition [21]: 16%
residual activity [22]: 72%
residual activity [23]: 79%
residual activity [24]: 79%
residual activity [25]: 75%
inhibition [26]: -8%
residual activity [27]: 78%
residual activity [28]: 81%
residual activity [29]: 98%
residual activity [30]: 84%
residual activity [31]: 85%
residual activity [32]: 99%
residual activity [33]: 94%
residual activity [34]: 88%

O=C(c1ccc(F)cc1)N1CC(COc2ccc(Br)cc2)(C(=O)O)C1 [PF-04475866]
Ki (Histamine H4 receptor): 10 µM
inhibition [35]: -4.38%
